According to publication PMC9228535, “Antistaphylococcal Activities and ADME-Related Properties of Chlorinated Arylcarbamoylnaphthalenylcarbamates” (Pharmaceuticals, 2022):
Converted amounts (≈) assume the structure as drawn. Like-named read-outs stand apart in the source and are kept apart here.

Experiments:
[1] = tested on: Enterococcus faecalis ATCC 29212; assay: MIC, microtitration broth method; type: cell-based; conditions: for MIC: ATCC29212, EF = Enterococcus faecalis, 24 h, read-out: MIC; for anti-enterococcal activity (in words): E. faecalis ATCC 29212
Description: (§1) In vitro antibacterial activity of the synthesized compounds was evaluated against representatives of multidrug-resistant bacteria, three clinical isolates of methicillin-resistant S. aureus: clinical isolate of animal origin, MRSA 63718 (Department of Infectious Diseases and Microbiology, Faculty of Veterinary Medicine, University of Veterinary Sciences Brno, Czech Republic), carrying the mecA gene; and MRSA SA 630 [46] and MRSA SA 3202 [46] (National Institute of Public Health, Prague, Czech Republic), both of human origin. Suspected colonies were confirmed by PCR; a 108bp fragment specific for S. aureus was detected. All isolates were tested for the presence of the mecA gene encoding methicillin resistance. […] Vancomycin-susceptible methicillin-susceptible S. aureus (VS-MSSA) ATCC 29213, obtained from the American Type Culture Collection, was used as the reference and quality control strain. Enterococcus faecalis ATCC 29212 was obtained from the American Type Culture Collection and used as the reference and quality control strain.
(§2) The minimum inhibitory concentrations (MICs) were evaluated by the microtitration broth method according to the CLSI [64, 65] with some modifications. The compounds were dissolved in DMSO (Sigma, St. Louis, MO, USA) to get a concentration […] and diluted in a microtitration plate in an appropriate medium, namely, Cation Adjusted Mueller–Hinton (CaMH, Oxoid, Basingstoke, UK) for staphylococci (S. aureus ATCC 29213, clinical isolates of MRSA 63718, SA 630, and SA 3202) and brain heart infusion (BHI, Oxoid) for E. faecalis ATCC 29212, to reach the final concentration of 256-0.125 µg/mL. The plate was inoculated by the tested microorganisms. The final concentration of bacterial cells was 10^5 for bacteria. Ampicillin (Sigma) was used as reference drugs. A drug-free control and a sterility control were included. The plates were incubated for 24 h at 37 °C for staphylococci and E. faecalis ATCC 29212 (stability evaluation of the carbamates, see Supplementary materials, Table S1). […] The experiments were repeated three times.

MRSA 63718 [2] = assay: MIC, microtitration broth method; type: cell-based; conditions: Staphylococcus aureus
Description: (§3) All the investigated compounds were screened for in vitro antibacterial activity against the reference and quality control strain Staphylococcus aureus ATCC 29213 and clinical isolates of methicillin-resistant S. aureus (MRSA) 63718, SA 630, and SA 3202 [14]. Activities are expressed as the minimum inhibitory concentrations (MICs), see Table 2. In addition to the MICs, the minimum bactericidal concentrations (MBCs) were also determined.
as §1, §2

[3] = tested on: Staphylococcus aureus ATCC 29213; assay: MIC, microtitration broth method; type: cell-based; conditions: ATCC29213, SA = S. aureus ATCC 29213, 24 h, read-out: MIC
Description: as §3, §1, §2

MRSA SA 3202 [4] = assay: MIC, microtitration broth method; type: cell-based; conditions: Staphylococcus aureus
Description: as §3, §1, §2

MRSA SA 630 [5] = assay: MIC, microtitration broth method; type: cell-based; conditions: Staphylococcus aureus
Description: as §3, §1, §2

THP-1 cells = assay: In vitro cytotoxicity assay (WST-1); type: cell-based; conditions: Homo sapiens; THP-1, 24 h, ± SD, n = 6; read-out: IC50
Description: Preliminary in vitro cytotoxicity screening of the investigated compounds was performed using human monocytic leukemia THP-1 cells, see Table 2. The ability to inhibit the human cancer cell viability (IC50) of the compounds was compared to camptothecin toxicity (0.16 ± 0.07 μM). […] However, these values are up to two orders of magnitude higher than their significant antistaphyloccocal concentrations. This fact is also taken into account in the calculated selectivity index (SI), Table 2, where for only three compounds the SI is <20, while for the rest of the agents SI is >20, and for some derivatives even 100 and more. Thus, based on all these observations, it can be concluded that all the tested derivatives can be considered as in vitro non-toxic compounds for the subsequent design of new therapeutic agents.
The human THP-1 cell line (European Collection of Cell Cultures, Salisbury, UK) was cultured in RPMI 1640 medium supplemented with 10% fetal bovine serum, 2% L-glutamine, 1% penicillin, and streptomycin at 37 °C with 5% CO2. Cells were passaged at approximately 1-week intervals. All the tested compounds were prepared and dissolved as mentioned in our previous work.

MRSA 63718 [6] = assay: MBC, agar aliquot subculture method; type: cell-based; conditions: Staphylococcus aureus
Description: as §3
(§4) For the S. aureus and MRSA isolates, the agar aliquot subculture method was used as a test for bactericidal agents. After the MIC value determination, the inoculum was transferred to Mueller–Hinton (Oxoid) agar using a multipoint inoculator. The plates were incubated in a thermostat at 37 °C for 24 h. The lowest concentration of test compound at which ≤5 colonies were obtained was then evaluated as MBC, corresponding to a 99.9% decrease in CFU relative to the original inoculum.

[7] = tested on: Staphylococcus aureus ATCC 29213; assay: MBC, agar aliquot subculture method; type: cell-based; conditions: ATCC29213, SA = S. aureus ATCC 29213, read-out: MBC
Description: as §3, §4

MRSA SA 3202 [8] = assay: MBC, agar aliquot subculture method; type: cell-based; conditions: Staphylococcus aureus
Description: as §3, §4

MRSA SA 630 [9] = assay: MBC, agar aliquot subculture method; type: cell-based; conditions: Staphylococcus aureus
Description: as §3, §4

[10] = Lipophilicity determination by RP-HPLC (log k, log D); type: physicochemical; conditions: for log D6.5 / log D7.4 / log k: RP-HPLC; for log D6.5: MeOH 72%/acetate buffered saline pH 6.5; for log D7.4: MeOH 72%/acetate buffered saline pH 7.4; for log k: MeOH 72%/water 28%
Description: Lipophilicity was measured by reversed-phase high performance liquid chromatography (RP-HPLC) under isocratic conditions with methanol as the organic modifier in the aqueous mobile phase and the logarithm of the capacity factor k was calculated, which is used as the lipophilicity index converted to the log P scale. In addition to the log k values, the logarithm of the distribution coefficient DpH at pH 6.5 and 7.4 was determined to clarify the behavior of the compounds under physiological conditions and possible ionization. Instead of water, a buffer of suitable pH was used as part of the mobile phase. In addition to the above-mentioned experimental methods, commercially available ChemBioDraw Ultra 13.0 and ACD/Percepta ver. […] In addition to lipophilicity, other parameters discussed in Ro5, such as molecular weight, number of H-bond donors/acceptors, as well as parameters not reported in Ro5, but characterizing the physicochemical properties of the prepared molecules, such as number of rotatable bonds, were predicted using ACD/Percepta. Moreover, for each R substituent, bulkiness expressed as molar volume (MV [cm^3]), a parameter describing the tail length/branching of each carbamates, was calculated.
A HPLC separation module Agilent 1200 Series (Agilent Technologies, Santa Clara, CA, USA) equipped with a Dual Absorbance Detector (DAD SL G1315C, Agilent Technologies) was used. A chromatographic column Symmetry® C18 5 μm, 4.6 × 250 mm, Part No. W21751W016 (Waters Corp, Milford, MA, USA) was used. The HPLC separation process was monitored by ChemStation for LC 3D systems (Agilent Technologies). […] The total flow of the column was 1.0 mL/min, injection 20 μL, column temperature 40 °C, and sample temperature 10 °C. The detection wavelength of 210 nm was chosen. A KI methanolic solution was used for the determination of the dead times (tD). Retention times (tR) were measured in minutes. The capacity factors k were calculated according to the formula k = (tR − tD)/tD, where tR is the retention time of the solute, and tD is the dead time obtained using an unretained analyte. The distribution coefficients DpH were calculated according to the formula DpH = (tR − tD)/tD. Each experiment was repeated three times.

Row | Compound | MIC [1] [µM] | MIC (MRSA 63718 [2]; MRSA, 24 h) [µM] | MIC [3] [µM] | MIC (MRSA SA 3202 [4]; 24 h) [µM] | MIC (MRSA SA 630 [5]; 24 h) [µM] | IC50 (THP-1 cells) [µM] | MBC (MRSA 63718 [6]; MRSA) [µM] | MBC [7] [µM] | MBC (MRSA SA 3202 [8]) [µM] | MBC (MRSA SA 630 [9]) [µM] | log D6.5 [10] | log D7.4 [10] | log k [10] | further results
1 | O=C(NC1CCCCC1)Oc1c(C(=O)Nc2cc(Cl)c(Cl)cc2Cl)ccc2ccccc12 [Compound 11, 2-[N-(2,4,5-Trichlorophenyl)carbamoyl]naphthalen-1-yl cyclohexyl carbamate] | 65.1 (≈ 32 µg/mL) | 0.254 (≈ 0.125 µg/mL) | 0.128 (≈ 0.063 µg/mL) | 0.508 (≈ 0.25 µg/mL) | 0.508 (≈ 0.25 µg/mL) | 2.76 ± 0.24 | 0.508 (≈ 0.25 µg/mL) | 0.508 (≈ 0.25 µg/mL) | 0.508 (≈ 0.25 µg/mL) | 1.02 (≈ 0.5 µg/mL) | 1.2952 | 1.2955 | 1.2911 | anti-enterococcal activity (in words) [1]: moderate activity
2 | CCCCCNC(=O)Oc1c(C(=O)Nc2cc(Cl)c(Cl)cc2Cl)ccc2ccccc12 [Compound 5, 2-[N-(2,4,5-Trichlorophenyl)carbamoyl]naphthalen-1-yl pentyl carbamate] | 267 (≈ 128 µg/mL) | 0.261 (≈ 0.125 µg/mL) | 0.067 (≈ 0.0321 µg/mL) | 0.131 (≈ 0.0629 µg/mL) | 0.261 (≈ 0.125 µg/mL) | 3.44 ± 0.04 | 0.261 (≈ 0.125 µg/mL) | 0.067 (≈ 0.0321 µg/mL) | 0.131 (≈ 0.0629 µg/mL) | 0.521 (≈ 0.25 µg/mL) | 1.3072 | 1.3168 | 1.3051 | 
3 | O=C(NC1CCCC1)Oc1c(C(=O)Nc2cc(Cl)c(Cl)cc2Cl)ccc2ccccc12 [Compound 10, 2-[N-(2,4,5-Trichlorophenyl)carbamoyl]naphthalen-1-yl cyclopentyl carbamate] | 268 (≈ 128 µg/mL) | 0.262 (≈ 0.125 µg/mL) | 0.262 (≈ 0.125 µg/mL) | 2.09 (≈ 0.999 µg/mL) | 0.262 (≈ 0.125 µg/mL) | 3.23 ± 0.29 | 0.262 (≈ 0.125 µg/mL) | 0.262 (≈ 0.125 µg/mL) | 2.09 (≈ 0.999 µg/mL) | 1.05 (≈ 0.5 µg/mL) | 1.1521 | 1.1515 | 1.1481 | lipophilicity (experimental log k/log D, approximate) [10]: ca. 1.15
4 | O=C(NC1CCCCCC1)Oc1c(C(=O)Nc2cc(Cl)c(Cl)cc2Cl)ccc2ccccc12 [Compound 12, 2-[N-(2,4,5-Trichlorophenyl)carbamoyl]naphthalen-1-yl cycloheptyl carbamate] | 127 (≈ 64.2 µg/mL) | 0.247 (≈ 0.125 µg/mL) | 0.494 (≈ 0.25 µg/mL) | 0.494 (≈ 0.25 µg/mL) | 0.494 (≈ 0.25 µg/mL) | 3.24 ± 0.12 | 0.247 (≈ 0.125 µg/mL) | 0.494 (≈ 0.25 µg/mL) | 0.494 (≈ 0.25 µg/mL) | 0.494 (≈ 0.25 µg/mL) | 1.4492 | 1.4527 | 1.4469 | lipophilicity (experimental log k/log D, approximate) [10]: ca. 1.45
5 | CCCCCCCNC(=O)Oc1c(C(=O)Nc2cc(Cl)c(Cl)cc2Cl)ccc2ccccc12 [Compound 7, 2-[N-(2,4,5-Trichlorophenyl)carbamoyl]naphthalen-1-yl heptyl carbamate] | 63 (≈ 32 µg/mL) | 0.246 (≈ 0.125 µg/mL) | 0.124 (≈ 0.063 µg/mL) | 0.246 (≈ 0.125 µg/mL) | 0.246 (≈ 0.125 µg/mL) | 3.19 ± 0.44 | 0.246 (≈ 0.125 µg/mL) | 0.124 (≈ 0.063 µg/mL) | 0.246 (≈ 0.125 µg/mL) | 0.492 (≈ 0.25 µg/mL) | 1.6765 | 1.6863 |  | anti-enterococcal activity (in words) [1]: moderate activity
6 | CC[C@@]1(O)C(=O)OCc2c1cc1n(c2=O)Cc2cc3ccccc3nc2-1 [CMT, camptothecin, reference compound] |  |  |  |  |  | 0.16 ± 0.07 |  |  |  |  |  |  |  | 
7 | CCCNC(=O)Oc1c(C(=O)Nc2cc(Cl)c(Cl)cc2Cl)ccc2ccccc12 [Compound 3, 2-[N-(2,4,5-Trichlorophenyl)carbamoyl]naphthalen-1-yl propyl carbamate] | 283 (≈ 128 µg/mL) | 0.139 (≈ 0.0628 µg/mL) | 0.035 (≈ 0.0158 µg/mL) | 0.071 (≈ 0.0321 µg/mL) | 0.553 (≈ 0.25 µg/mL) | 3.12 ± 0.07 | 0.277 (≈ 0.125 µg/mL) | 0.035 (≈ 0.0158 µg/mL) | 0.071 (≈ 0.0321 µg/mL) | 0.553 (≈ 0.25 µg/mL) | 0.9734 | 0.9793 | 0.9689 | 
8 | CC1(C)S[C@@H]2[C@H](NC(=O)[C@H](N)c3ccccc3)C(=O)N2[C@H]1C(=O)O [APM, ampicillin, reference compound] |  |  | 5.72 (≈ 2 µg/mL) |  |  |  |  | > 5.72 |  |  |  |  |  | MIC (MRSA 63718 [2]; MRSA1 = MRSA 63718, 24 h, read-out: MIC): 45.8 µM (≈ 16 µg/mL); MIC (MRSA SA 3202 [4]; MRSA3 = SA 3202, 24 h, read-out: MIC): 45.8 µM (≈ 16 µg/mL); MIC (MRSA SA 630 [5]; MRSA2 = SA 630, 24 h, read-out: MIC): 45.8 µM (≈ 16 µg/mL); MBC (MRSA 63718 [6]; MRSA1 = MRSA 63718, read-out: MBC): > 45.8 µM; MBC (MRSA SA 3202 [8]; MRSA3 = SA 3202, read-out: MBC): > 45.8 µM; MBC (MRSA SA 630 [9]; MRSA2 = SA 630, read-out: MBC): > 45.8 µM
